Tested on: S. cerevisiae cells
Assay: Transport assay: uptake of CCM by yeast cells (LC-MS)
Assay type: cell-based, Saccharomyces cerevisiae
Conditions: pH 4.5, 24 h
Procedure: Overnight grown CEN.PK113-5A cells were diluted (OD600=0.1) into SC-HIS-LEU medium with or without 1.4 mM (200 mg/L) CCM. Media samples were taken at both 0 h and 24 h, while samples for measuring cellular lysates (10^8 cells) were harvested at 24 h. For quantification of CCM by LC-MS, cultures were harvested by centrifugation. For extracellular CCM quantification the supernatant was centrifuged twice and filtered (0.2 μm) before analysis. For intracellular CCM quantification harvested pellets were washed twice in ice-cold isotonic saline solution (0.9% NaCl) and centrifuged at 5,000×g before cells were extracted in an aqueous 0.1% formic acid solution and sonicated for 15 min. Following this, samples were centrifuged at 13,000×g and supernatants filtered (0.2 μm) prior to analysis. LC-MS data was collected on EVOQ EliteTriple Quadrupole Mass Spectrometer system coupled with an Advance UHPLC (Bruker). Samples were held at 4° C. during the analysis. A 1 μL sample was injected onto a ACQUITY HSS T3 C18 UHPLC column (Waters), with a 1.8 μm particle size and 2.1×100 mm dimensioning. The column was held at a temperature of 30° C. […] Two transitions were chosen in negative Multiple Reaction Monitoring (MRM) mode for quantification of CCM: m/z 141.70-96.80 (quantification transition) and m/z 141.70-53.1 (confirmation transition). […]

## O=C(O)/C=C\C=C/C(=O)O [CCM, cis, cis-muconic acid]
  uptake of CCM by yeast: directly taken up

From patent US20190185865A1, “USE OF PROKARYOTIC TRANSCRIPTIONAL ACTIVATORS AS METABOLITE BIOSENSORS IN EUKARYOTIC CELLS” (Danmarks Tekniske Universitet, priority 2016, published 2019)
